In ChEMBL document CHEMBL6103630, “Discovery of Novel 2,4,5-Trisubstituted Pyrimidine Derivatives as Potent and Selective FGFR Inhibitors against Gatekeeper Mutants for the Treatment of NSCLC” (J Med Chem, 2025):
Active and inactive are the calls of the source. No cut-off for these calls is given here.

Assays:
[1] = target: Fibroblast growth factor receptor 2 (Homo sapiens, UniProt P21802, V564I)
NCI-H1581 [2] = test: Antitumor activity against human NCI-H1581 cells xenografted in BALB/c nude mouse assessed as induction of apoptosis in tumor by H and E staining based analysis; format: functional, cell-based
L6 [3] = test: Antitumor activity against rat L6 cells harboring FGFR1 V561M mutant xenografted in BALB/c nude mouse assessed as suppression of tumor cell proliferation at 30 to 60 mg/kg by Ki-67 staining based analysis; format: functional, organism-based; settings: dose 30-60 mg/kg
[4] = target: Fibroblast growth factor receptor 3 (Homo sapiens, UniProt P22607); test: Binding affinity to FGFR3 (unknown origin) at 0.1 uM
[5] = target: Platelet-derived growth factor receptor beta (Homo sapiens) (UniProt P09619); test: Inhibition of PDGFRbeta (unknown origin)
[6] = target: Vascular endothelial growth factor receptor 2 (Homo sapiens) (UniProt P35968); test: Inhibition of VEGFR2 (unknown origin)
NCI-H1581 [7] = test: Inhibition of colony formation in human NCI-H1581 cells incubated for 48 hrs by crystal violet staining based assay; format: functional, cell-based; settings: dose 10-40 nM
A549 [8] = test: Inhibition of DNA replication in human A549 cells incubated for 1 hrs by EdU staining based analysis; format: functional, cell-based; settings: dose 10-40 µM
NCI-H1581 [9] = test: Inhibition of cell migration in human NCI-H1581 cells incubated upto 72 hrs by wound healing assay; format: functional, cell-based; settings: dose 10-40 µM
NCI-H1581 [10] = test: Inhibition of cell migration in human NCI-H1581 cells at 40 nM incubated upto 72 hrs by wound healing assay (reference value: 80%); format: functional
NCI-H1581 [11] = test: Inhibition of AKT (unknown origin) phosphorylation in human NCI-H1581 cells at 10 to 40 nM by Western blotting analysis; format: cell-based; settings: dose 10-40 nM
A549 [12] = test: Inhibition of cell migration in human A549 cells at 10 to 40 nM incubated for 48 hrs by crystal violet staining based transwell assay; format: functional; settings: dose 10-40 nM
[13] = Cmax in male Sprague-Dawley rat at 10 mg/kg, po by UHPLC-MS/MS analysis; format: ADME, organism-based; settings: in vivo
[14] = Tmax in male Sprague-Dawley rat at 2 mg/kg, iv by UHPLC-MS/MS analysis; format: ADME, organism-based; settings: in vivo
[15] = Half life in male Sprague-Dawley rat at 10 mg/kg, po by UHPLC-MS/MS analysis; format: ADME, organism-based; settings: in vivo
[16] = AUC(0 to t) in male Sprague-Dawley rat at 2 mg/kg, iv by UHPLC-MS/MS analysis; format: ADME, organism-based; settings: in vivo
[17] = AUC(0 to t) in male Sprague-Dawley rat at 10 mg/kg, po by UHPLC-MS/MS analysis; format: ADME, organism-based; settings: in vivo
[18] = AUC(0 to infinity) in male Sprague-Dawley rat at 10 mg/kg, po by UHPLC-MS/MS analysis; format: ADME, organism-based; settings: in vivo
[19] = Oral bioavailability in male Sprague-Dawley rat at 2 mg/kg, iv by UHPLC-MS/MS analysis; format: ADME, organism-based; settings: in vivo
[20] = Toxicity in ICR mouse assessed as change in body weight at 80 mg/kg, po measured after 7 days; format: organism-based; settings: in vivo, 168 h, time 7 day
[21] = Toxicity in ICR mouse assessed as change in liver weight at 80 mg/kg, po measured after 7 days; format: organism-based; settings: in vivo, 168 h, time 7 day
[22] = Toxicity in ICR mouse assessed as change in lung weight at 80 mg/kg, po measured after 7 days; format: organism-based; settings: in vivo, 168 h, time 7 day
[23] = Toxicity in ICR mouse assessed as histopathological changes in liver at 80 mg/kg, po by H and E staining based analysis; format: organism-based; settings: in vivo
[24] = Antitumor activity against rat L6 cells harboring FGFR V561M mutant xenografted in BALB/c nude mouse assessed as tumor growth inhibition at 60 mg/kg relative to control; format: functional; settings: read-out: TGI
[25] = Toxicity in BALB/c nude mouse xenografted with rat L6 cells harboring FGFR V561M mutant assessed as change in body weight at 30 to 60 mg/kg and measured daily; format: organism-based; settings: in vivo, dose 30-60 mg/kg
[26] = Toxicity in BALB/c nude mouse xenografted with rat L6 cells harboring FGFR V561M mutant assessed as change in liver weight at 30 to 60 mg/kg and measured daily for 14 days; format: organism-based; settings: in vivo, 336 h, dose 30-60 mg/kg, time 14 day
[27] = Toxicity in BALB/c nude mouse xenografted with rat L6 cells harboring FGFR V561M mutant assessed as change in lung weight at 30 to 60 mg/kg and measured daily for 14 days; format: organism-based; settings: in vivo, 336 h, dose 30-60 mg/kg, time 14 day
Mus musculus [28] = test: In vivo inhibition of AKT phosphorylation in BALB/c nude mouse xenografted with rat L6 cells harboring FGFR1 V561M mutant assessed as suppression of AKT level in tumor at 60 mg/kg by Western blotting analysis; format: functional, organism-based
Mus musculus [29] = test: In vivo inhibition of ERK phosphorylation in BALB/c nude mouse xenografted with rat L6 cells harboring FGFR1 V561M mutant assessed as suppression of ERK level in tumor at 60 mg/kg by Western blotting analysis; format: functional, organism-based
Mus musculus [30] = test: In vivo inhibition of FGFR1 signaling pathway in BALB/c nude mouse xenografted with human NCI-H1581 cells assessed as reduction in FGFR1 phosphorylation level in tumor by Western blotting analysis; format: functional, organism-based
[31] = Toxicity in BALB/c nude mouse xenografted with human NCI-H1581 cells assessed as change in heart weight and measured after 14 days; format: tissue-based; settings: 336 h, time 14 day
[32] = Toxicity in BALB/c nude mouse xenografted with human NCI-H1581 cells assessed as change in spleen weight and measured after 14 days; settings: 336 h, time 14 day
L6 [33] = test: Antitumor activity against rat L6 cells harboring FGFR1 V561M mutant xenografted in BALB/c nude mouse assessed as induction of apoptosis in tumor at 30 to 60 mg/kg by H and E staining based analysis; format: functional, organism-based; settings: dose 30-60 mg/kg
NCI-H1581 [34] = test: cells; settings: Homo sapiens, NCI-H1581, 48 h
Description: Antiproliferative activity against human NCI-H1581 cells assessed as inhibition of cell proliferation incubated for 48 hrs by MTT assay

A549 [35] = test: cells; settings: Homo sapiens, A549, 48 h
Description: Antiproliferative activity against human A549 cells assessed as inhibition of cell proliferation incubated for 48 hrs by MTT assay

Sequence of Vascular endothelial growth factor receptor 2 (Homo sapiens) (P35968 whole entry): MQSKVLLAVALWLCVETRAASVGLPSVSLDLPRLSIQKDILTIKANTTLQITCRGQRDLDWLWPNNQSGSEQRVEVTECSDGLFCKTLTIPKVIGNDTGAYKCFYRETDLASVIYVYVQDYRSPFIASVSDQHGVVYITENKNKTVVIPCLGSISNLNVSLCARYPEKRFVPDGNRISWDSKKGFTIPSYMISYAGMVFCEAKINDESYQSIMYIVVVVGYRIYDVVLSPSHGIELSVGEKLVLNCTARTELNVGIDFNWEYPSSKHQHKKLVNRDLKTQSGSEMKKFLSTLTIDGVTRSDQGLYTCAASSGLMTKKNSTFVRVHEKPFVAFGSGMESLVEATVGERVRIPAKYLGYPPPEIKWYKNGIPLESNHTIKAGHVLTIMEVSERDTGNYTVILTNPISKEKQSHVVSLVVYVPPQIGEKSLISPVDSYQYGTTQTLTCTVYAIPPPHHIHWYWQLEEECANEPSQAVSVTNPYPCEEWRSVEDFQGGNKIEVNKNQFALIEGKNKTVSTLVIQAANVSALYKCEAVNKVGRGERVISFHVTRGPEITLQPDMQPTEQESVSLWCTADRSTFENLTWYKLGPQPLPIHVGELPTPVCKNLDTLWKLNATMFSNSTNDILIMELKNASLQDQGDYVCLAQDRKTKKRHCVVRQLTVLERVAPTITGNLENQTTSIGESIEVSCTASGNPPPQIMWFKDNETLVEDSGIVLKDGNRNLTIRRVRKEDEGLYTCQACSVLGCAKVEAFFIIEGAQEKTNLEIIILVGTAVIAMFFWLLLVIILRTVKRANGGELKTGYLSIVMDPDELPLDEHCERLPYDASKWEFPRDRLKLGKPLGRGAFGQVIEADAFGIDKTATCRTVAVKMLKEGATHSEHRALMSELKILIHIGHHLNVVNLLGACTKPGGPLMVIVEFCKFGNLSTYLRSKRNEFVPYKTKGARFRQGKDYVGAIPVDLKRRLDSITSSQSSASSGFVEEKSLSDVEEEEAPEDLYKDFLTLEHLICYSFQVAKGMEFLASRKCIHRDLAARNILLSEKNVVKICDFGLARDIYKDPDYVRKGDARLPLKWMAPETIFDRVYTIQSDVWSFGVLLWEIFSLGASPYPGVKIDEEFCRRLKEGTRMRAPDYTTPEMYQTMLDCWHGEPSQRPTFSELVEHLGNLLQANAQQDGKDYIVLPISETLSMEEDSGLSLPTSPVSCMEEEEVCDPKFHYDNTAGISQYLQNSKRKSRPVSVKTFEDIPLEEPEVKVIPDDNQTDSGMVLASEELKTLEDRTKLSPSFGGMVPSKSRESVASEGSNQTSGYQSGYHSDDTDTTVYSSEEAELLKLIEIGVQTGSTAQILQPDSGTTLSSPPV
Sequence of Fibroblast growth factor receptor 2 (P21802 22-821 V564I limits assumed): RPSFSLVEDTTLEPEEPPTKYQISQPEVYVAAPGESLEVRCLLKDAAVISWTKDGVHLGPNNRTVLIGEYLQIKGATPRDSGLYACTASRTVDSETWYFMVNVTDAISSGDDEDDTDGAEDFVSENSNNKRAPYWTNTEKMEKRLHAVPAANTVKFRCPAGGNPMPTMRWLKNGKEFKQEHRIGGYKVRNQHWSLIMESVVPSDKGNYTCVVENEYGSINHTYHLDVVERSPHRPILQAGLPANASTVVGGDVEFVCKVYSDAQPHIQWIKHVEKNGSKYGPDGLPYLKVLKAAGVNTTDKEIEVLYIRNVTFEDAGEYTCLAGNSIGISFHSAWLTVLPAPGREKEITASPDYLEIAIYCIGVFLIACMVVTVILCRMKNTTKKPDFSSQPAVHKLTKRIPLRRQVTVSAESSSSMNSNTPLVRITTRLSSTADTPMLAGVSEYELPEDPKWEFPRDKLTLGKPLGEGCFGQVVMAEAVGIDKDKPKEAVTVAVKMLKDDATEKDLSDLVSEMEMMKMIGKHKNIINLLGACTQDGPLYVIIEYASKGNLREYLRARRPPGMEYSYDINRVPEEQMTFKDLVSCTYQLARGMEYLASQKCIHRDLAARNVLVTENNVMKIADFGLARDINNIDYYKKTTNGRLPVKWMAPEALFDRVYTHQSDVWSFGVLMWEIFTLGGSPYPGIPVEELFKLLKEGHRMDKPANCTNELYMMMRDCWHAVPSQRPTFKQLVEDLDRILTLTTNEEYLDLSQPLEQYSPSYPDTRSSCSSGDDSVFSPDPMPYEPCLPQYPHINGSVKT
Sequence of Platelet-derived growth factor receptor beta (Homo sapiens) (P09619 whole entry): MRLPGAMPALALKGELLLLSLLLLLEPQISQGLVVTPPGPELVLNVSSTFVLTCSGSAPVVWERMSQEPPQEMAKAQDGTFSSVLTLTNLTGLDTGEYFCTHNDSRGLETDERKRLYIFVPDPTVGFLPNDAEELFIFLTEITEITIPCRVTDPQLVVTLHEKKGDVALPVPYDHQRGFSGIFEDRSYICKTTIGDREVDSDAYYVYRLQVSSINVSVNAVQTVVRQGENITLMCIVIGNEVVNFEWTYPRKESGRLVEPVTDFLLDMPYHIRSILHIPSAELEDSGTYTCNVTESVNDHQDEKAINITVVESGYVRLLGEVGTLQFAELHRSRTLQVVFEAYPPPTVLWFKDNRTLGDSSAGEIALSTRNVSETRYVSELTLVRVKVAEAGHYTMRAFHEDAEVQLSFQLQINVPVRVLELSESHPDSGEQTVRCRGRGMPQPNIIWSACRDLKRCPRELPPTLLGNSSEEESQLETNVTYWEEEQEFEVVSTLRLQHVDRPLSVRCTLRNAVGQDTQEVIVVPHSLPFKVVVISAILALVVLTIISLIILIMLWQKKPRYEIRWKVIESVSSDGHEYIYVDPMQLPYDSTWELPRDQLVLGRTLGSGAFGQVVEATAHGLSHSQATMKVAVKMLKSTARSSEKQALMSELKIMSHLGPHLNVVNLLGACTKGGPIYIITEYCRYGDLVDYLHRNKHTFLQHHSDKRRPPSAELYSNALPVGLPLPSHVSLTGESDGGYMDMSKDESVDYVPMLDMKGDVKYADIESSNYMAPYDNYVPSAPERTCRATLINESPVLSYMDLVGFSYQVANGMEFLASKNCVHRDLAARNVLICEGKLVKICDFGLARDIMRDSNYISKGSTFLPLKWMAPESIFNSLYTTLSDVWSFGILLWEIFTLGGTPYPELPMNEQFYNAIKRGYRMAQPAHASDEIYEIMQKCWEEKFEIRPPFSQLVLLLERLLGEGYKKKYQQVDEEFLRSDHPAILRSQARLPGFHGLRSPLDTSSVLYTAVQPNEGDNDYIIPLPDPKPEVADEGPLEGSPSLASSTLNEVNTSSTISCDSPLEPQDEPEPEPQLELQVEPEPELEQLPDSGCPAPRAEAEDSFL
Sequence of Fibroblast growth factor receptor 3 (P22607 23-806 limits assumed): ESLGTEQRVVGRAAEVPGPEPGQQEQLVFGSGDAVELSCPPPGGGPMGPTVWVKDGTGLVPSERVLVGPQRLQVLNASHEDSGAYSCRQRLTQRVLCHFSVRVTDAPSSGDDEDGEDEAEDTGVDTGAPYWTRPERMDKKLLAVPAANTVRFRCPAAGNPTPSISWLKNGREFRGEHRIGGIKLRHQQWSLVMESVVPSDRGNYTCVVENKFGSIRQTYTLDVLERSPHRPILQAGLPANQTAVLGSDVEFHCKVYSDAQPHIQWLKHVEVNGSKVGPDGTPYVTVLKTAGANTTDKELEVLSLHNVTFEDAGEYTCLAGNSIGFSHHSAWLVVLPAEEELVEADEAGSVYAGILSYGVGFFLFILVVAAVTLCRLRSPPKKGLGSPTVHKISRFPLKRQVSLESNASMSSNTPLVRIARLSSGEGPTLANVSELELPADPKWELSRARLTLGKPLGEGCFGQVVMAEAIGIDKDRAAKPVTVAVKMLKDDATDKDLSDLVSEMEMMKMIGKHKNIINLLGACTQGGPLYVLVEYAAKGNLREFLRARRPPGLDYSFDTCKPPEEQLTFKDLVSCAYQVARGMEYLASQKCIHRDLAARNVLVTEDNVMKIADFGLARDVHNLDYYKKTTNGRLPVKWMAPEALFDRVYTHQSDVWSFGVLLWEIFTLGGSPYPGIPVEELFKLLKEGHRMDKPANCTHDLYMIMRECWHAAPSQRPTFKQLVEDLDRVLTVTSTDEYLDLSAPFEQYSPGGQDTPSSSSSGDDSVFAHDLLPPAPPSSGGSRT

**Q.** With C=CC(=O)Nc1ccc(Nc2nc(Nc3ccc(N4C[C@@H](C)N[C@@H](C)C4)c(OC)c3)ncc2Cl)cc1Cl as the compound, how does the IC50 [1] read?
**A.** The IC50 was 29.9 nM.

**Q.** And the Activity (NCI-H1581 [2])?
**A.** The Activity was “Active”.

**Q.** What about the Activity (L6 [3]) of the same compound?
**A.** Its Activity is “Active”.

**Q.** What about the Activity [4] of the same compound?
**A.** The Activity was “Not active; Reduced Affinities Observed”.

**Q.** And the inhibition [5]?
**A.** Its inhibition is “Not active; Moderate To Weak Inhibitory Activity Observed”.

**Q.** And the inhibition [6]?
**A.** The inhibition was “Not active; Moderate To Weak Inhibitory Activity Observed”.

**Q.** And the inhibition (NCI-H1581 [7])?
**A.** The inhibition was “Dose-dependent-effect”.

**Q.** And the inhibition (A549 [8])?
**A.** Its inhibition is “Dose-dependent-effect”.

**Q.** And the inhibition (NCI-H1581 [9])?
**A.** The inhibition was “Dose-dependent-effect”.

**Q.** And the inhibition at 0.04 µM (NCI-H1581 [10])?
**A.** Its inhibition at 0.04 µM is 40%.

**Q.** What about the inhibition (NCI-H1581 [11]) of the same compound?
**A.** The inhibition was “Active”.

**Q.** And the inhibition (A549 [12])?
**A.** Its inhibition is “Active”.

**Q.** What about the Cmax [13] of the same compound?
**A.** The Cmax was 2250 ng/mL.

**Q.** What about the Tmax [14] of the same compound?
**A.** The Tmax was 4.8 min.

**Q.** And the half-life [15]?
**A.** Its half-life is 5.18 h.

**Q.** What about the AUC(0-t) [16] of the same compound?
**A.** The AUC(0-t) was 1940 ng·h/mL.

**Q.** And the AUC(0-t) [17]?
**A.** The AUC(0-t) was 7800 ng·h/mL.

**Q.** What about the AUC(0-inf) [18] of the same compound?
**A.** The AUC(0-inf) was 12900 ng·h/mL.

**Q.** What about the bioavailability [19] of the same compound?
**A.** The bioavailability was 47.7%.

**Q.** What about the Activity [20] of the same compound?
**A.** The Activity was “Non-toxic”.

**Q.** What about the Activity [21] of the same compound?
**A.** Its Activity is “Non-toxic”.

**Q.** What about the Activity [22] of the same compound?
**A.** The Activity was “Non-toxic”.

**Q.** What about the Activity [23] of the same compound?
**A.** Its Activity is “Non-toxic”.

**Q.** And the inhibition in vivo at 60 mg/kg [24]?
**A.** Its inhibition in vivo at 60 mg/kg is 69%.

**Q.** And the Activity [25]?
**A.** Its Activity is “Non-toxic”.

**Q.** And the Activity [26]?
**A.** Its Activity is “Non-toxic”.

**Q.** What about the Activity [27] of the same compound?
**A.** Its Activity is “Non-toxic”.

**Q.** And the inhibition (Mus musculus [28])?
**A.** Its inhibition is “Active”.

**Q.** And the inhibition (Mus musculus [29])?
**A.** The inhibition was “Active”.

**Q.** What about the inhibition (Mus musculus [30]) of the same compound?
**A.** The inhibition was “Active”.

**Q.** And the Activity [31]?
**A.** Its Activity is “Non-toxic”.

**Q.** And the Activity [32]?
**A.** The Activity was “Non-toxic”.

**Q.** What about the Activity (L6 [33]) of the same compound?
**A.** Its Activity is “Active”.

**Q.** And the IC50 (NCI-H1581 [34])?
**A.** The IC50 was 18 nM.

**Q.** What about the IC50 (A549 [35]) of the same compound?
**A.** Its IC50 is 380 nM.
